From article PMC8270315, “Combination of Heme Oxygenase-1 Inhibition and Sigma Receptor Modulation for Anticancer Activity” (Molecules, 2021)
Read-outs that look alike come from different tables or passages of the source.

What was measured:
[1] = system: U87MG cells; test: MTT cell viability assay, U87MG cells; type: cell-based, human; settings: for effect on U87MG cell viability (in words): U87MG, 1, 10 and 50 μM; for effect of co-administration on U87MG cell viability (in words): 10 μM σR ligand plus 10 μM HO-1 inhibitor, compared with σR ligand alone
Procedure: In particular, we used the human glioblastoma cell line U87MG (ATCCC number #HTB-14) and the prostate cancer cell line DU145 (ATCC HTB-81). These cell lines were obtained from the American Type Culture Collection (ATCC, Rockville, Md., USA). Cells were cultured in Dulbecco’s modified Eagle’s medium (DMEM) supplemented with 10% of heat-inactivated fetal bovine serum (FBS), 100 U/mL penicillin and 100-μg/mL streptomycin (Sigma-Aldrich, Steinheim, Germany) and incubated at 37 °C in a humidified atmosphere with 5% CO2.
The cytotoxicity of HO-1 inhibitors and σR ligands previous synthesized compounds as well as novel HO-1/σR hybrids compounds were evaluated. The effect on cell viability was assessed by performing MTT assay. Cells were seeded into 96-well plates at a density of 7.0 × 10^3 cells/well in 100 µL of culture medium. The day after, cells were treated with each molecule at three different concentrations (1 µM, 10 µM and 50 µM) for 72 h. Following treatments, 0.5 mg/mL of 3-[4,5-dimethylthiazol-2-yl]-2,5-diphenyltetrazolium bromide (MTT) (Sigma-Aldrich) was added to each well and incubated for 4 h at 37 °C. Finally, dimethyl-sulfoxide (DMSO) was used to dissolve formazan salts and absorbance was measured at 450 nm in a microplate reader (Biotek Synergy-HT). Six replicate wells were used for each group.

[2] = system: DU145 cells; test: MTT cell viability assay, DU145 cells; type: cell-based, human; settings: DU145, single compound 10 μM, 72 h
Description: In some types of human prostate and brain cancers, both HO-1 and σRs are overexpressed, influencing cancer cell proliferation. Consequently, σR ligands and HO-1 inhibitors may have anticancer activity. Literature data highlight the potential antiproliferative activity of various σ1R ligands in highly diffusive glioblastoma and prostate cancer cells, likely by interfering with the progression of cell cycle and decreasing the migration of cancer cells. Likewise, HO-1 inhibition hinders cancer progression, mainly by decreasing CO-mediated angiogenesis and disrupting the antioxidant HO-1 activity. […] Cytotoxicity of all new and previous synthesized compounds were evaluated in vitro via MTT assay. The cell viability of DU145 and U87-MG cells was assessed after 72 h of continuous treatment with all tested compounds, at the concentrations of 1, 10, and 50 μM. […]
The cytotoxicity of HO-1 inhibitors and σR ligands previous synthesized compounds as well as novel HO-1/σR hybrids compounds were evaluated. The effect on cell viability was assessed by performing MTT assay. […] Finally, dimethyl-sulfoxide (DMSO) was used to dissolve formazan salts and absorbance was measured at 450 nm in a microplate reader (Biotek Synergy-HT). […]

[3] = biological target: T1, σ2R (Rattus norvegicus, UniProt Q5U3Y7); test: σ2R radioligand binding assay, [3H]DTG, rat liver membranes
T1 construct: from tissue; host or cells: liver membranes of Sprague-Dawley rats (animals from ENVIGO RMS S.R.L.)
T1 sequence (Q5U3Y7 1-176): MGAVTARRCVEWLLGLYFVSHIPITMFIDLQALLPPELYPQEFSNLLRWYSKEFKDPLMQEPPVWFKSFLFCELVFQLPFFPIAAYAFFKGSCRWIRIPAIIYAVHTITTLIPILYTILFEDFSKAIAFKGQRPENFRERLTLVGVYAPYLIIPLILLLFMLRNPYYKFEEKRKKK
Procedure: (§1) All new synthesized HO-1/σ hybrids 1–4 were evaluated for affinity at both the σ1R and the σ2R, through radioligand binding assay.
(§2) Brain and liver homogenates for σ1R and σ2R binding assays were prepared from male Dunkin–Hartley guinea pigs and Sprague–Dawley rats, respectively, (ENVIGO RMS S.R.L., Udine, Italy) as previously reported [54]. In vitro σ1R ligand binding assays were carried out in Tris buffer (50 mM, pH 7.4) for 150 min at 37 °C. […] Bound and free radioligand were separated by fast filtration under reduced pressure using a Millipore filter apparatus through Whatman GF 6 glass fiber filters, which were presoaked in a 0.5% poly(ethyleneimine) water solution. Each filter paper was rinsed three times with ice-cold Tris buffer (50 mM, pH 7.4), dried at rt, and incubated overnight with scintillation fluid into pony vials. The bound radioactivity has been determined using a liquid scintillation counter (Beckman LS 6500) [55]. In vitro σ2R ligand binding assays were carried out in Tris buffer (50 mM, pH 8.0) for 120 min at rt. […] Bound and free radioligand were separated by fast filtration under reduced pressure using a Millipore filter apparatus through Whatman GF 6 glass fiber filters, which were presoaked in a 0.5% poly(ethyleneimine) water solution. Each filter paper was rinsed three times with ice-cold Tris buffer (10 mM, pH 8), dried at rt, and incubated overnight with scintillation fluid into pony vials. The bound radioactivity was determined using a liquid scintillation counter (Beckman LS 6500) [56]. The Ki-values were calculated with the program GraphPad Prism® 7.0 (GraphPad Software, San Diego, CA, USA). The Ki-values are given as mean value ± SD from at least two independent experiments performed in duplicate.

[4] = biological target: T2, HO-1 (Rattus norvegicus, UniProt P06762); test: HO-1 inhibition, bilirubin formation in rat spleen microsomal fraction; type: biochemical; settings: Table S1
T2 construct: selected in order to use the most native (i.e., closest to in vivo) forms of HO-1; from tissue; host or cells: spleen microsomal fraction of male Sprague-Dawley rats
T2 sequence (P06762 1-289): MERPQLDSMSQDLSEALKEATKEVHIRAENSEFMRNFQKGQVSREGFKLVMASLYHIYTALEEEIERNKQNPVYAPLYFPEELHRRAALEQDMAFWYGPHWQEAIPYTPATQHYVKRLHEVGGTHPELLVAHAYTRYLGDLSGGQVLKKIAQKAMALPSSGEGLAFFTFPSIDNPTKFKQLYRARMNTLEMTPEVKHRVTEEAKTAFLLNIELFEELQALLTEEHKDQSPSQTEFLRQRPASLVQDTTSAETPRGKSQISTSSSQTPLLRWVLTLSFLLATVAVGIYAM
Procedure: The new HO-1/σRs hybrids 1–4 were tested to evaluate their HO-1 inhibitory activity. The enzyme was obtained from the microsomal fractions of rat spleen. Determination of HO-1 activity was performed by measuring the bilirubin formation using the difference in absorbance at 464–530 nm, as reported in the experimental section. Compounds LS/0, LS4/28, LS6/42 and azalanstat were used as reference substances. We focused our attention on HO-1, since only this inducible isoform is involved in tumorigenesis and in tumor progression.
Microsomal fractions obtained from rat spleen were used as sources of HO-1. Microsomal preparations obtained by differential centrifugation, were selected in order to use the most native (i.e., closest to in vivo) forms of HO-1. The experiments reported in the present paper complied with current Italian law and met the guidelines of the Institutional Animal Care and Use Committee of Ministry of Health (Directorate General for Animal Health and Veterinary Medicines) (Italy). The experiments were performed in male Sprague–Dawley albino rats (150 g body weight and age 45 d). They had free access to water and were kept at room temperature with a natural photo-period (12 h light, 12 h dark cycle). For measuring HO-1 activities, each rat was sacrificed and their spleens were excised and weighed. A homogenate (15%, w/v) of spleens pooled from four rats was prepared in ice-cold HO-homogenizing buffer (50 mM Tris buffer, pH 7.4, containing 0.25 M sucrose) using a Potter–Elvehjem homogenizing system with a Teflon pestle. The microsomal fraction of rat spleen homogenate was obtained by centrifugation at 10,000× g for 20 min at 4 °C, followed by centrifugation of the supernatant at 100,000× g for 60 min at 4 °C. The 100,000g pellet (microsomes) was resuspended in an 100 mM potassium phosphate buffer, pH 7.8, containing 2 mM MgCl2 with a Potter–Elvehjem homogenizing system. The rat spleen microsomal fractions were divided into equal aliquots, placed into microcentrifuge tubes, and stored at −80 °C for up to 2 months.
Biliverdin reductase was obtained from liver cytosol. Rat liver was perfused through the hepatic portal vein with cold 0.9% NaCl, then it was cut and flushed with 2 × 20 mL of ice-cold PBS to remove all of the blood. Liver tissue was homogenized in 3 volumes of solution containing 1.15% KCl w/v and Tris buffer 20 mM, pH 7.8 on ice. Homogenates were centrifuged at 10,000× g, for 20 min at 4 °C. Supernatant was decanted and centrifuged at 100,000× g for 1 h at 4 °C to sediment the microsomes. The 100,000× g supernatant was saved and then stored in small amounts at −80 °C after its protein concentration was measured.
The HO-1 activities were determined by measuring the bilirubin formation using the difference in absorbance at 464–530 nm. Reaction mixtures (500 µL) contained 20 mM Tris–HCl, pH 7.4, (1 mg/mL) microsomal extract, 0.5–2 mg/mL biliverdin reductase, 1 mM NADPH, 2 mM glucose 6-phosphate (G6P), 1 U G6P dehydrogenase, 25 μM hemin, and 10 µL of DMSO (or the same volume of DMSO solution of test compounds to a final concentration of 100, 10, and 1 µM). Samples were incubated for 60 min at 37 °C in a circulating water bath in the dark. Reactions were stopped by adding the same volume of chloroform. After recovering the chloroform phase, the amount of bilirubin formed was measured with a double-beam spectrophotometer as OD464–530 nm (extinction coefficient, 40 mM/cm^−1 for bilirubin). […]

[5] = biological target: T3, σ1R (Cavia porcellus, UniProt Q60492); test: σ1R radioligand binding assay, [3H](+)-pentazocine, guinea pig brain cortex membranes; settings: for inhibition at 10 µM: read-out: σ1R % of inhibition at 10 μM
T3 construct: The thawed membrane preparation of guinea pig brain cortex was incubated with increasing concentrations of test compounds; from tissue; host or cells: brain cortex membranes of male Dunkin-Hartley guinea pigs (animals from ENVIGO RMS S.R.L.)
Procedure: as §1, §2

[6] = system: HO-2; set-up: method as in PMID 29783634, PMID 23867390, PMID 32056044, PMID 32168943, PMID 32222619; settings: Figure 1, previously demonstrated; cited from earlier work
[7] = biological target: T1, σ2R; settings: Table S1; ref [4, 5] of the supplement; cited from earlier work

T3 sequence (Q60492 whole entry): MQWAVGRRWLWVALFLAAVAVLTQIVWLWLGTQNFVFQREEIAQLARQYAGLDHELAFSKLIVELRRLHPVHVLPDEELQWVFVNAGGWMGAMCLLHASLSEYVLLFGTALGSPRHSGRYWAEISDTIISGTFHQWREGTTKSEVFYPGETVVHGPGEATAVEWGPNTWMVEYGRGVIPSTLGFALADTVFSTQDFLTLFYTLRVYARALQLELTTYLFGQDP

Row | SMILES | effect on U87MG cell viability (in words) ([1]; 72 h, MTT) | Ki [3] [µM] | inhibition at 10 µM [3] [%] | IC50 [4] [µM] | Ki [5] [µM] | inhibition at 10 µM [5] [%] | IC50 [6] [µM] | further results
1 | O=C(CCCN1CCC(O)(c2ccc(Cl)cc2)CC1)c1ccc(F)cc1 [Haloperidol, haloperidol] | high efficacy in downregulation of cell viability | – | – | – | – | – | – | reduction of cell viability [2]: about 50%
2 | O=C(Cc1ccc(OCCCCn2ccnc2)cc1)N1CCN(Cc2ccccc2)CC1 [Compound 2, 2-(4-(4-(1H-imidazol-1-yl)butoxy)phenyl)-1-(4-benzylpiperazin-1-yl)ethan-1-one] | reduced U87MG cell viability at all concentrations, especially at 50 μM | > 10 | 67 | 216 ± 3.6 | > 10 | 73 | – | –
3 | O=C(CCCc1ccc(OCCCCn2ccnc2)cc1)N1CCN(Cc2ccccc2)CC1 [Compound 4, 4-(4-(4-(1H-imidazol-1-yl)butoxy)phenyl)-1-(4-benzylpiperazin-1-yl)butan-1-one] | reduced U87MG cell viability at all concentrations, especially at 50 μM | 4.62 | – | 87.7 ± 1.3 | > 10 | 55 | – | IC50 HO-1 [4]: the most potent compound among the series
4 | OC(Cn1ccnc1)c1cccc(-c2ccccc2)c1 (stereo not shown) [LS4/28] | did not affect U87MG cell viability | – | – | – | – | – | > 100 | –
5 | OC(Cn1ccnc1)c1ccc(CCc2ccc(Br)cc2)cc1 (stereo not shown) [LS6/42] | – | – | – | – | – | – | > 100 | reduction of cellular viability ([1]; U87MG, single compound 10 μM, 72 h, MTT): about 50%
6 | COc1ccc(CN2CCN(C(=O)CCC3CCCCC3)CC2)cc1 [SI1/13] | high efficacy in downregulation of cell viability | – | – | – | – | – | – | effect of co-administration on U87MG cell viability (in words) ([1]; U87MG): increased by the addition of all the tested HO-1 inhibitors; Ki [7]: 1.42 µM
7 | COc1ccc(CN2CCN(C(=O)CCc3ccccc3)CC2)cc1 [RFB/13] | significantly reduce cell viability only at 50 μM | – | – | – | – | – | – | effect of co-administration on U87MG cell viability (in words) ([1]; U87MG): significantly reduced for compound RFB/13 only when combined with LS4/28 or LS6/42
8 | Brc1cccc(OCCCCn2ccnc2)c1 [LS/0] | significantly reduce cell viability only at 50 μM | – | – | – | – | – | 2.2 ± 0.2 | –
9 | O=C(CCc1ccc(OCCCCn2ccnc2)cc1)N1CCN(Cc2ccccc2)CC1 [Compound 3, 3-(4-(4-(1H-imidazol-1-yl)butoxy)phenyl)-1-(4-benzylpiperazin-1-yl)propan-1-one] | less efficacy than the control at 1 μM | > 10 | 66 | 162 ± 1.8 | > 10 | 78 | – | –
10 | O=C(c1ccc(OCCCCn2ccnc2)cc1)N1CCN(Cc2ccccc2)CC1 [Compound 1, (4-(4-(1H-imidazol-1-yl)butoxy)phenyl)(4-benzylpiperazin-1-yl)methanone] | reduced U87MG cell viability at all concentrations, especially at 50 μM | > 10 | 54 | 230 ± 5.1 | > 10 | 90 | – | –
